{
  "source": "patent US20020159981A1",
  "about": "“Methods of controlling proliferation and differentiation of stem and progenitor cells” (Gamida-Cell Ltd., priority 1999, published 2002)",
  "key": {"[1]": {"tested_on": "Cord blood-derived CD34 cells", "assay": "Long-term liquid culture of CD34 cells: proliferation, CFUc, differentiation status", "assay_type": "cell-based, human", "details": "for cell proliferation and generation of CFUc in long-term cultures: long-term cultures (FIGS. 21, 22)", "procedure": "(§1) Culture procedures: For the expansion of progenitor cells, CD34^+ enriched fractions or unseparated mononuclear cells were seeded at about 1-3×10^4 cells/ml in either alpha minimal essential medium containing 10% preselected fetal calf serum (FCS) (both from GIBCO, Grand Island, N.Y.), or serum-free medium (Progenitor-34 medium, Life Technologies, Grand Island, N.Y.). The media were supplemented with a mixture of growth factors and transition metal chelators. The cultures were incubated at 37° C. in an atmosphere of 5% CO2 in air with extra humidity. Half of the medium was changed weekly with fresh medium containing all the supplements.\n(§2) Cloning potential evaluations: The cloning potential of cells developed in the liquid culture was assayed, at different intervals, in semi-solid medium. The cells were washed and seeded in 35 mm dishes in methylcellulose containing alpha medium supplemented with recombinant growth factors (SCF, G-CSF, GM-CSF and EPO). Following 2 weeks incubation, the cultures were scored with an inverted microscope. Colonies were classified as blast, mixed, erythroid, myeloid, and megakaryocytic, according to their cellular composition.\nMorphological assessment: In order to characterize the resulting culture populations, aliquots of cells were deposited on a glass slide (cytocentrifuge, Shandon, Runcorn, UK), fixed and stained in May-Grunwald Giemsa. Other aliquots were stained by benzidine for intracellular hemoglobin.\nTEPA effects on proliferation and clonability of long-term CD34^+ cultures: Long-term cultures were maintained for 3-5 weeks by weekly demi-depopulation (one half of the culture volume was removed and replaced by fresh medium and cytokines).\nCD34^+ cells derived from human neonatal cord blood were purified by immunomagnetic method and then cultured in liquid medium supplemented with cytokines either with or without transition metal chelators. At weekly intervals, the cultures were demi-depopulated by removing half of the culture content (supernatant and cells) and replacing it with fresh medium, cytokines and the chelators. At the indicated weeks the cellular content of the cultures were quantified for total cells (by a manual microscopic/hemocytometric method), for CD34^+ cells (by immuno-flow cytometry) and for clonogenic cells (by cloning the cells in cytokine-supplemented semi-solid medium). The cultures were initiated with 1×10^4 cells, 50-80% of which were CD34^+ and 25-50% of which were CFUc. The results presented in FIGS. 11 to 24 were calculated per 1×10^4 initiating cells (the numbers were multiplied by the dilution factors)."}, "[2]": {"tested_on": "cord blood-derived CD34^+ cells", "assay": "Copper-chelating peptides on proliferation and clonability in CD34 cell cultures", "assay_type": "cell-based", "details": "for decrease of cell number / decrease of clonogenic potential (CFUc): peptides 10 μM, cytokines 10 ng/ml each; for decrease of cell number: after 7 weeks (FIG. 25a); for decrease of clonogenic potential (CFUc): after 7 weeks (FIG. 25b); for effect on cell differentiation: second group of Copper chelators", "procedure": "Culture procedures: For the expansion of progenitor cells, CD34^+ enriched fractions were seeded at 1×10^4 cells/ml in alpha minimal essential medium containing 10% preselected fetal calf serum (FCS) (both from GIBCO, Grand Island, N.Y.). The medium was supplemented with a mixture of growth factors and Copper chelators. The cultures were incubated at 37° C. in an atmosphere of 5% CO2 in air with extra humidity. Half of the medium was changed weekly with fresh medium containing all the supplements.\nThe cloning potential of the cultured cells was assayed in semi-solid medium. The cells were washed and seeded in 35 mm dishes in methylcellulose containing alpha medium supplemented with 30% FCS and further with recombinant growth factors (stem cell factor (SCF), G-CSF, GM-CSF and erythropoietin (EPO)). Following two week incubation, the cultures were scored with an inverted microscope. Colonies were classified as blast, mixed, erythroid, myeloid, and megakaryocytic, according to their cellular composition.\nThe effect of Copper-chelating peptides on proliferation and clonability in CD34 cell cultures: Cultures were initiated with 10^4 cord blood-derived CD34^+ cells by plating purified cells in liquid medium in the presence of SCF, FLT3 and IL-6 (50 ng/ml each) and the Copper-binding peptides, Gly-Gly-His (GGH) or Gly-His-Lys (GHL) (10 μM each), or the late-acting cytokines G-CSF and GM-CSF (10 ng/ml each). At weekly intervals, the cultures were demi-depopulated and supplemented with fresh medium, cytokines and the peptides. After 7 weeks, cells were counted and assayed for CFUc."}, "[3]": {"tested_on": "Cord blood-derived CD34 cells", "assay": "Short-term liquid culture of CD34 cells: cell number, CD34 cells, colony forming cells", "assay_type": "cell-based, human", "details": "for reversal of TEPA activities by supplemented ions: TEPA-treated cultures, short to medium term (FIGS. 8, 9); for effects of transition metal chelators on CD34^+ cells: 10 μM, day 7 (FIG. 7)", "procedure": "The interphase layer of mononuclear cells were collected, washed three times with Ca/Mg free phosphate buffered saline containing 1% bovine serum albumin (BSA). The cells were incubated for 30 min. at 4° C. with murine monoclonal anti CD34 antibody (0.5 μg/10^6 mononuclear cells) and thereafter isolated using the miniMACS apparatus (Miltenyi-Biotec, Bergisch, Gladbach, Germany) according to the manufacturer's protocol.\nas §1, §2\nImmunofluorescence staining: At different intervals, cells from the liquid cultures were assayed for CD34 antigen. Aliquots were harvested, washed and incubated on ice with FITC-labeled anti CD45 monoclonal antibody and either PE-labeled anti CD34 (HPCA-2) monoclonal antibody or PE-labeled control mouse Ig. After incubation, red cells were lysed with lysing solution, while the remaining cells were washed and analyzed by flow cytometer.\nFlow cytometry: Cells were analyzed and sorted using FACStarPlus flow cytometer (Becton-Dickinson, Immunofluorometry systems, Mountain View, Calif.). Cells were passed at a rate of 1,000 cells/second through a […] nozzle, using saline as the sheath fluid. A 488 nm argon laser beam at 250 mW served as the light source for excitation. […] The PMTs was set at the appropriate voltage. Logarithmic amplification was applied for measurements of fluorescence and linear amplification—for forward light scatter. At least 10^4 cells were analyzed.\nCord blood-derived CD34 cells were plated in liquid culture in the presence of: FL—50 ng/ml, SCF—50 ng/ml, IL-6—50 ng/ml, with or without IL-3—20 ng/ml, with or without TEPA—10 μM. On day 7, the percentage of CD34 cells and the total cell number were determined. Aliquots equivalent to 1×10^3 initiating cells were assayed on days 0 and 7 for colony forming cells (CFU) by cloning in semi-solid medium. CFU expansion represents the ratio of CFU present on day 7 to CFU present on day 0."}, "HL-60 cells": {"tested_on": "HL-60 cells", "assay": "Copper determination in chelator treated cells (atomic absorption)", "assay_type": "cell-based, human", "procedure": "Copper Determination: Cells were harvested by centrifugation at 1000×g for 5 minutes. The cell pellet was washed three times by re-suspending the cells in PBS (Ca^++ and Mg^++ free) and centrifugation at 1000×g. An aliquot containing 2×10^6 cells was then transferred into a metal-free Eppendorf tube and the cells were recovered by centrifugation at 1000×g. The cell pellet was re-suspended in 0.03 M ultra-pure nitric acid to give a concentration of 1×10^7 cells/ml. The cells were homogenized with a high shear mixer (polytron, Kinematica, Switzerland) for 1 minutes to disrupt the cell and release intracellular copper content. Cell samples were vortexed before transferring to a vial autosampler and analyzed in duplicate by a Perkin Elmer graphite furnace atomic absorption spectrophotometer at a wavelength of 324.7 nm. The samples were analyzed against copper standard solution prepared from a commercial stock solution that was diluted with 0.03 M ultra pure nitric acid."}, "[4]": {"tested_on": "Murine erythroleukemia cells (MEL)", "assay": "HMBA-induced differentiation and growth of erythroleukemic cells", "assay_type": "cell-based, mouse", "details": "day 3 (Table 2)", "procedure": "Mouse erythroleukemic cells (MEL): MEL cells are erythroblast like cells. Following treatment with several chemicals (differentiation inducers) the cells undergo erythroid differentiation and accumulate hemoglobin. […] At day 3 of the culture, the total number of cells and the percentage of hemoglobin-containing cells were determined (Table 2).\nOn day 3, total cell number and hemoglobin containing (benzidine positive) cells were determined."}, "[5]": {"details": "polyamine chelating agents, weeks 3, 4, 6, 7 (FIGS. 21a-b)"}},
  "data": [
    {"molecule": "Gly-Gly-His (GHK) [GGH]", "values": [
      {"measurement": "activity on differentiation of CD34^+ cells", "setting": "[1]", "result": "stimulate differentiation"},
      {"measurement": "decrease of cell number", "setting": "[2]", "result": 10, "unit": "%"},
      {"measurement": "decrease of clonogenic potential (CFUc)", "setting": "[2]", "result": 80, "unit": "%"},
      {"measurement": "effect on cell differentiation", "setting": "[2]", "result": "accelerate cell differentiation"}
    ]},
    {"molecule": "O=S(=O)([O-])[O-].[Zn+2]", "note": "[Zinc, Zinc-sulfate]", "values": [
      {"measurement": "clonability of the cultures", "setting": "[3]; Zinc alone (FIG. 10)", "result": "expand the clonability"},
      {"measurement": "effect of Zinc in long term cultures", "setting": "[1]; FIGS. 23a-b, to a smaller extent than the chelators", "result": "mimicked the effect of the chelating agents"}
    ]},
    {"molecule": "Gly-His-Lys (GGH) [GHL]", "values": [
      {"measurement": "activity on differentiation of CD34^+ cells", "setting": "[1]", "result": "stimulate differentiation"},
      {"measurement": "decrease of cell number", "setting": "[2]", "result": 25, "unit": "%"},
      {"measurement": "decrease of clonogenic potential (CFUc)", "setting": "[2]", "result": 78, "unit": "%"},
      {"measurement": "effect on cell differentiation", "setting": "[2]", "result": "accelerate cell differentiation"}
    ]},
    {"molecule": "C1CNCCNCCN1.Cl.Cl.Cl", "note": "[1,4,7-Triazacyclononane trihydrochioride]", "values": [
      {"measurement": "Average Intracellular Cu (% of control)", "setting": "HL-60 cells; 20 μM", "result": 32, "unit": "%"},
      {"measurement": "Average Intracellular Cu (% of control)", "setting": "HL-60 cells; 100 μM", "result": 36, "unit": "%"}
    ]},
    {"molecule": "O=S(=O)([O-])[O-].[Cu+2]", "note": "[Copper, Copper-sulfate]", "values": [
      {"measurement": "reversal of TEPA activities by supplemented ions", "setting": "[3]", "result": "reversed"}
    ]},
    {"molecule": "NCCNCCNCCN", "note": "[Triethylene tetramine, triethylene-tetramine]", "values": [
      {"measurement": "cell proliferation and generation of CFUc in long-term cultures", "setting": "[1]", "result": "support continuous cell proliferation and long-term generation of CFUc and to delay cell differentiation"},
      {"measurement": "concentrations with optimal activity", "setting": "[1]; [5]", "result": 20, "unit": "µM"}
    ]},
    {"molecule": "O=C1CC(=O)NCCNCCCNCCN1", "note": "[1,4,8,11-Tetraaza cyclotetradecane-5,7-dione]", "values": [
      {"measurement": "Average Intracellular ppb Cu", "setting": "HL-60 cells; 100 μM, control 49 + − 18", "result": 274, "unit": "ppb"}
    ]},
    {"molecule": "C[C@H](CS)C(=O)N1CCC[C@H]1C(=O)O", "note": "[Captopril, captopril, reference compound]", "values": [
      {"measurement": "effects of transition metal chelators on CD34^+ cells", "setting": "[3]", "result": "share the same effects on CD34^+ cells as TEPA"},
      {"measurement": "HMBA-induced differentiation of MEL cells", "setting": "[4]", "result": "inhibited"}
    ]},
    {"molecule": "C1CNCCNCCNCCN1", "note": "[1,4,7,10-Tetraaza cyclododecane]", "values": [
      {"measurement": "activity on differentiation of CD34^+ cells", "setting": "[1]", "result": "stimulate differentiation"}
    ]},
    {"molecule": "CC(C)(S)[C@@H](N)C(=O)O", "note": "[Penicilamine, penicilamine, reference compound]", "values": [
      {"measurement": "effects of transition metal chelators on CD34^+ cells", "setting": "[3]", "result": "share the same effects on CD34^+ cells as TEPA"},
      {"measurement": "cell proliferation and generation of CFUc in long-term cultures", "setting": "[1]", "result": "sustained cell proliferation and expansion of clonogenic cells"},
      {"measurement": "concentrations with optimal activity", "setting": "[1]; transition metal chelating agents, weeks 4, 5, 7 (FIGS. 22a-b)", "result": 5, "unit": "µM"}
    ]},
    {"molecule": "NCCN", "note": "[EDA, ethylenediamine]", "values": [
      {"measurement": "cell proliferation and generation of CFUc in long-term cultures", "setting": "[1]", "result": "support continuous cell proliferation and long-term generation of CFUc and to delay cell differentiation"},
      {"measurement": "concentrations with optimal activity", "setting": "[1]; [5]", "result": 20, "unit": "µM"}
    ]},
    {"molecule": "iron", "values": [
      {"measurement": "reversal of TEPA activities by supplemented ions", "setting": "[3]", "result": "did not"}
    ]},
    {"molecule": "O=[Se]([O-])[O-].[Na+].[Na+]", "note": "[selenium, sodium selenite]", "values": [
      {"measurement": "reversal of TEPA activities by supplemented ions", "setting": "[3]", "result": "did not"}
    ]}
  ]
}
